Experimental data taken from patent publication US10550130B2, “Benzo-thiazolo-imidazole compounds and uses thereof” (KING SAUD UNIVERSITY, priority 2015, dated 2020).

Legend:
Assay type in all cases: cell-based
SKBR-3 = test: Annexin V binding by flow cytometry (apoptosis)
Method: (§1) It is known that loss of phospholipid asymmetry of the plasma membrane is an early event of apoptosis. The annexin V binds to negatively charged phospholipids, like phosphatidylserine. During apoptosis, the cells react to annexin V once chromatin condenses but before the plasma membrane loses its ability to exclude propidium iodide (PI).
(§2) Annexin-V staining was performed by using Vybrant Apoptosis Assay Kit #2 (Molecular Probes) following the manufacturer's recommendations. Annexin-V stained cells were analyzed by flow cytometry, measuring the fluorescence emission between 515 nm to 545 nm.
To evaluate the selective-apoptotic effect of the compound in cancer cells but not normal cells, the cancer cell lines SKBR3, MDA-MB-468, and normal cells MCF-10 A, HSFN1 (human foreskin cells) and BM4 (bone marrow derived mesenchymal stem cells) were used. […] Upon treatment of cells with 20 μM for 48 h, cells were stained with Annexin-V and PI and binding of Annexin-V and PI to the cells was determined by flow cytometry.
(§3) In a next step, it was investigated whether there was a correlation between Numb protein expression and sensitivity of a cell line to the apoptotic effects of KSA-101696. Apoptotic cells were determined by Annexin-V staining as described in Example 1.

intracellular Notch-1 = test: Immunofluorescence of intracellular Notch-1 in MDA-MB-231 breast cancer cells; details: MDA-MB-231 cells; FIGS. 1B and 1C
Method: MDA-MB-231 breast cancer cells were treated either with vehicle (control) or with 0.01 μM, 0.1 μM, 1 μM or 10 μM final concentration of doxorubicin, taxotere or KSA-101696. Then, the cells were cytospun to glass slides by centrifugation at 800 rpm for 3 min. Slides were then air-dried overnight and 4% formaldehyde fixed for 10 min. For staining, the cell membrane was permeabilized with 0.5% triton-X (Sigma) followed by overnight incubation with primary antibodies (anti-Numb, Abcam) and (anti-intracellular Notch-1, Cell Signalling) at 1:100. Cells were washed and stained with AlexaFluor goat anti-rabbit IgG 488 (Invitrogenat) 1:400 for 30 minutes. 300 nM DAPI (Invitrogen, Carlsbad, Calif., USA) was added for 10 minutes to counterstain the nuclei. Slides were mounted and immunofluorescence was visualized using BD Pathway 855 microscope.
Numb exerts its functional role on cell fate decisions by antagonizing Notch signaling activities. The molecular mechanisms underlying this relationship appear to rely on the ubiquitination of the membrane bound Notch-1 receptor and the subsequent degradation of its NICD (Notch intracellular domain) following receptor activation.

T47D = test: Annexin V binding by flow cytometry (apoptosis); details: high Numb expression, FIG. 9B
Method: as §1, §2
This experiment was carried out with three breast cancer cell lines: MDA-MB-468, SKBR-3 and T47D. The MDA-MB-468 cell line represents the basal like breast cancer (which is a breast cancer subtype with a more aggressive clinical behavior). The SKBR-3 cell line represents Her-2 overexpressing breast cancer. […] The T47D cell line represents ER/PR positive breast cancer. Unlike MDA-MB-468 cells or SKBR-3 cells, T47D cells are highly differentiated cells and respond very well to hormonal therapy and chemotherapy.
as §3

[1] = test system: ALDH+ CD24low/CD44High breast cancer stem cells (from MDA-MB-468 cells); test: Apoptosis in sorted breast cancer stem cells versus differentiated cells; details: 10 μM, two days; ALDH+ CD24low/CD44High vs ALDH- CD24High/CD44low from MDA-MB-468
Method: MDA-MB-468 Cells harvested, washed and incubated in aldefluor assay buffer containing an ALDH substrate (BAAA (BODIPY®-aminoacetaldehyde). For negative control, half of the cells of each sample was removed to another FACS tube and incubated under identical condition with DEAB, a specific inhibitor of ALDH enzyme. Then the cells were stained with the following directly conjugated monoclonal antibodies anti-mouse CD44-APC-Cy7 (Biolegend), anti-mouse CD24-Pacific Blue (EXBIO Praha, a.s.). All analyses and cell sorting were performed on a FACSAria™ cell sorter (BD Biosciences). Debris and cell clusters were excluded during side-scatter and forward-scatter analyses.
ALDH^+ CD24^low/CD44^High breast cancer stem cells were sorted and cultured for 24 h. Cells were then treated with 10 μM of the compound KSA-101696 for two days. At the same time, ALDH^− CD24^High/CD44^low breast cancer differentiated cells were used as a negative control to evaluate the selective apoptotic activity of the compound against breast cancer stem cells compared with differentiated phenotype from the same bulk population of MDA-MB-468 cells.

[2] = test system: colony forming SKBR3 cells; test: 2-D colony formation assay; details: 5000 viable cells from the ALDEFLUOR assay cells; 60 mm dish
Method: Cells were treated with different concentration of the compound or control medium containing 0.1% DMSO for 72 h. Cells were harvested and counted by using trypan blue to exclude the dead cells. A 5000 viable cells of treated and control cells were suspended in 3 ml DMEM supplemented with 10% FBS (Cambrex Bio Science) and seeded in a 60 mm tissue culture dish (Falcon, BD). The next day, a new fresh media was added and the cells were allowed to grow forming colonies for 14 d. The cells were then stained with methylene blue (Sigma-Aldrich, St. Louis, Mo., USA) and colonies containing more than 20 cells were counted.
Thus, from the same cells as used in the ALDEFLUOR assay, 5000 viable cells were seeded in a 60 mm tissue culture dish.

HT-29 colon cancer cells = test: CD133 expression by flow cytometry; details: 10 μM, 48 h
Method: In a further experiment, HT-29 colon cancer cells were cultured in 6 well plates and treated by KSA-101696 (10 μM) or vehicle for 48 h. Then, cells were collected and stained with a CD133 antibody and analyzed by flow cytometry.

[3] = test system: THP-1 acute monocytic leukemia cells; test: CD34 positive cell population by flow cytometry; details: 48 h
Method: THP-1 leukemic cells were cultured in RPMI medium in […] flask and treated with KSA-101696 for 48 h. Cells were then washed and stained with anti-CD34-FITC (BD biosciences) for 30 min at room temperature. The hematopoietic stem cell population (CD34 positive cells) was analyzed by flow cytometry to evaluate the effect of KAS-101696 on hematopoietic stem cells of leukemic origin.

SP cells of MCF-7 cells = test: Side population (SP) cell fraction by flow cytometry; details: Homo sapiens, MCF7, 24 h, normal culture conditions, read-out: IC50, SP cell inhibition
Description: It is known that one of the properties of stem/progenitor cells is their ability to survive under anchorage-independent conditions and generate mammospheres, which are composed of a small number of stem cells. Given that CSCs generally make up for a small minority of the cells within cancer cell populations, the dye DyeCycle Violet was used to isolate SP cells (side population cells; the side population is enriched for stem/progenitor cells), through a BD FACSAria™ cell sorter. Subsequently, the isolated SP cells were used in a Mammosphere Formation Assay. SP cells of MCF-7 and BT-474 formed more mammospheres than non-SP cells (see FIG. 4A).
Next, the effects of the compound KSA-101696 in SP cells under normal culture conditions was evaluated.

COc1ccc(-c2csc3nc4ccccc4n23)cc1 [KSA-101696, 3-(4-methoxyphenyl)benzo[4,5]imidazo[2,1-b]thiazole]
apoptosis (Annexin-V) in relation to Numb expression (SKBR-3; SKBR-3, low levels of Numb expression, FIG. 9B): increased apoptosis
apoptosis (Annexin-V and PI) (SKBR-3; SKBR-3, 20 μM, 48 h): induced apoptosis
concentration inhibiting intracellular Notch-1 by activating Numb expression (intracellular Notch-1): 0.625 µM
apoptosis (Annexin-V) in relation to Numb expression (T47D): did not have such effects
induced apoptosis in cancer stem cells compared to differentiated breast cancer cells [1]: two-fold increase
inhibition of colony forming cells [2]: showed the same activity in inhibition of colony forming cells
expression of colon cancer stem cell marker CD133 (HT-29 colon cancer cells): inhibition in the expression of the colon cancer stem cell marker CD133
CD34+ cells percentage [3]: reduction of CD34^+ cells percentage
IC50 (SP cells of MCF-7 cells): ~300 nM
